The series in a line: cn = amount concentration of the nth substance listed, in mol/dm3. To be noted: 298.15 K, 101 kPa, Liquid, c1 = 1.

Each structure is given as a SMILES string. ± gives the expanded uncertainty stated by the source.

As usually defined, the speed of sound is the propagation velocity of pressure waves in the medium. The mass density is the mass of a sample divided by its volume.

Consider `CNCC(=O)O` [sarcosine] + O, for which, under “Sing-around technique in a fixed-path interferometer”, the speed of sound is listed as 1561.4 ± 1.3 m/s. The mass density (Vibrating tube method) was determined as 1023.26 ± 0.12 kg/m3.

Source of the values: the NIST ThermoML archive (doi:10.1016/j.jct.2013.09.009).
